# Columns and labels:
# [1] = tested on: B.st. spores; assay: Antibiotic detection test in spiked milk, borate/succinate culture of Example 6 (Table 4); format: cell-based, Bacillus (Geobacillus) Stearothermophilus; set-up: key to Color 1 / Color 2: Color result 1 and 2 is a negative result; Color result 1 and 2 is a negative result; 3 is a borderline result; 4 and 5 is a positive result; 4 and 5 is a positive result; settings: for % Pos (Color 2) / Color 2: after 16 hours at room temperature; for % Pos (Color 1) / Color 1: immediately after test completion
# Protocol: BCP/Borate/Succinate Solution was prepared by adding 3.8 grams of Borate and 6 grams Succinate to 100 mL of reverse osmosis/deionized water (RO/DI Water) in 125 mL flask. 50 milligrams of BCP was added to a 50 mL conical tube and 5 mL of Borate/Succinate solution was added to the 50 milligrams BCP and mixed.
# To prepare media 5 grams glucose and 1 gram Mueller Hinton Broth was dissolved in 100 mL RO/DI Water. 1.2 mL of a 0.01 mg/mL solution of trimethoprim in RO/DI Water was prepared and added to the media. A 20 mL of BCP/Borate/Succinate was added to the media and the media was sterile filtered through a 0.45 micron filter and then cooled to 4 degrees C.
# Agar was prepared by combining 0.3 grams Difco Bacto-Agar (Item #0140-01), 0.225 NaCl and 17.485 RO/DI Water. The mixture was heated to 95° C. and then removed from the heat and allowed to cool to 75° C. Next 6 mL of media (prepared as described above with BCP/Tris) was added to the agar and mixed for 5 minutes. The mixture was cooled to 57° C. and 1 mL spore solution (concentration of 1 billion cfu/mL) was added and mixed together for 5 minutes. 0.200 mL was dispensed into the bottom of each of the vials.
# In test operation 200 microliters of various milk sample, spiked with known concentrations of antibiotics, were pipetted into test vials and incubated for the prescribed time (in this test 2 hours 10 minutes) and prescribed temperature (64 degrees C.+/−2 degrees C.). Incubation was in the Charm I Inctronic incubator. Results were recorded immediately after test completion (Color 1) and after being left at room temperature for 16 hours (Color 2). Results listed are in parts per billion (ppb). 4 samples were run at each concentrations except for raw negative milk (16 samples) and 3 ppb pen G (2 samples) and amoxicillin (2 samples). Abbreviations are penicillin G (PenG); sulfamethazine (SMZ); sulfadimethoxine (SDM); tylosin (TY); gentamicin (G); oxytetracycline (OT); pirlimycin (Pirl); amoxicillin (Amox); ampicillin (Amp); cloxacillin (Clox); ceftiofur sodium (Ceft); cephaprin (Ceph); tilmicosin (Til); sulfadoxine (SDN); neomycin (Neo). Color result 1 and 2 is a negative result, 3 is a borderline result and 4 and 5 is a positive result.
# [2] = tested on: B.st. spores; assay: Antibiotic detection test in spiked milk, Trizma/succinate culture of Example 7 (Table 5); format: cell-based, Bacillus (Geobacillus) Stearothermophilus; settings: for 16 hr Result / % Pos (16 hr Result): 16 hours later; for % Pos (Result) / Result: immediately after test completion
# Protocol: A Trizma/Succinate solution was prepared by adding 2.5 grams Trizma Base and 6 grams Succinate to 100 mL of reverse osmosis/deionized water (RO/DI Water) in a 125 mL flask. 40 milligrams of BCP (see example 1 for BCP preparation) was then added to a 50 mL conical tube and 25 mL of the Trizma/Succinate solution was added to the 40 milligrams BCP and mixed.
# The media was prepared by dissolving 5 grams glucose and 1 gram Mueller Hinton Broth in 100 mL RO/DI Water. 1.2 mL of a 0.01 mg/mL solution of trimethoprim in RO/DI water was added to the media. 20 mL of the BCP/Trizma/Succinate preparation was added to the media and the media was sterile filtered through a 0.45 micron filter and cooled to 4 degrees C.
# 0.3 grams Difco Bacto-Agar (Item #0140-01), 0.225 NaCl and 17 mL of RO/DI water was combined and mixed and heated the mixture to 95° C. The mixture was removed from the heat and allowed it to cool to 75° C. and then 6 mL media (with BCP/Tris) was added and mixed for 5 minutes. The mixture was cooled to 57° C. and 2 mL spore (concentration of 1 billion cfu/mL) was added and mixed for 5 minutes. 0.200 mL was dispensed into the bottom of each vial.
# In test operation 200 microliters of various milk samples, spiked with known concentrations of antibiotics, were pipetted into vials and incubated for the prescribed time (in this test 2 hours 30 minutes) and prescribed temperature (64 degrees C.+/−2 degrees C.). Results were recorded immediately after test completion and 16 hours later. Incubation was in various Charm Inctronic I incubators. Concentrations listed are in parts per billion (ppb). 4 samples were run at each concentration except 16 negative samples were run and 2 samples each for 3 ppb pen G and amoxicillin. Abbreviations are pencillin G (PenG); sulfamethazine (SMZ); sulfadimethoxine (SDM); tylosin (TY); gentamicin (G); oxytetracycline (OT); pirlimycin (Pirl); amoxicillin (Amox); ampicillin (Amp); cloxacillin (Clox); ceftiofur sodium (Ceft); cephaprin (Ceph); tilmicosin (Til); sulfadoxine (SDN); neomycin (Neo).
structure (smiles),measurement,setting,value
"Cc1onc(-c2ccccc2Cl)c1C(=O)N[C@@H]1C(=O)N2[C@@H]1SC(C)(C)[C@@H]2C(=O)O [Clox, cloxacillin]",% Pos (Color 2),[1]; milk spiked at 30 ppb,100%
same,Color 2,[1]; milk spiked at 30 ppb,5
same,% Pos (Color 1),[1]; milk spiked at 30 ppb,100%
same,Color 1,[1]; milk spiked at 30 ppb,4
same,% Pos (Color 2),[1]; milk spiked at 50 ppb,100%
same,Color 2,[1]; milk spiked at 50 ppb,5
same,% Pos (Color 1),[1]; milk spiked at 50 ppb,100%
same,Color 1,[1]; milk spiked at 50 ppb,5
same,16 hr Result,[2]; milk spiked at 30 ppb,Pos
same,% Pos (16 hr Result),[2]; milk spiked at 30 ppb,100%
same,% Pos (Result),[2]; milk spiked at 30 ppb,100%
same,Result,[2]; milk spiked at 30 ppb,Pos
same,16 hr Result,[2]; milk spiked at 50 ppb,Pos
same,% Pos (16 hr Result),[2]; milk spiked at 50 ppb,100%
same,% Pos (Result),[2]; milk spiked at 50 ppb,100%
same,Result,[2]; milk spiked at 50 ppb,Pos
"NC[C@@H]1O[C@H](O[C@H]2[C@@H](O)[C@H](O[C@@H]3[C@@H](O)[C@H](N)C[C@H](N)[C@H]3O[C@H]3O[C@H](CN)[C@@H](O)[C@H](O)[C@H]3N)O[C@@H]2CO)[C@H](N)[C@@H](O)[C@@H]1O [Neo, neomycin]",% Pos (Color 2),[1]; milk spiked at 750 ppb,100%
same,Color 2,[1]; milk spiked at 750 ppb,5
same,% Pos (Color 1),[1]; milk spiked at 750 ppb,100%
same,Color 1,[1]; milk spiked at 750 ppb,5
same,16 hr Result,[2]; milk spiked at 750 ppb,Pos
same,% Pos (16 hr Result),[2]; milk spiked at 750 ppb,100%
same,% Pos (Result),[2]; milk spiked at 750 ppb,100%
same,Result,[2]; milk spiked at 750 ppb,Pos
"CC[C@@H]1CCN[C@H](C(=O)N[C@@H]([C@H]2O[C@H](SC)[C@H](O)[C@@H](O)[C@H]2O)[C@H](C)Cl)C1 [Pirl, pirlimycin]",% Pos (Color 2),[1]; milk spiked at 100 ppb,100%
same,Color 2,[1]; milk spiked at 100 ppb,4
same,% Pos (Color 1),[1]; milk spiked at 100 ppb,100%
same,Color 1,[1]; milk spiked at 100 ppb,4
same,% Pos (Color 2),[1]; milk spiked at 200 ppb,100%
same,Color 2,[1]; milk spiked at 200 ppb,5
same,% Pos (Color 1),[1]; milk spiked at 200 ppb,100%
same,Color 1,[1]; milk spiked at 200 ppb,5
same,16 hr Result,[2]; milk spiked at 100 ppb,Pos
same,% Pos (16 hr Result),[2]; milk spiked at 100 ppb,100%
same,% Pos (Result),[2]; milk spiked at 100 ppb,100%
same,Result,[2]; milk spiked at 100 ppb,Pos
same,16 hr Result,[2]; milk spiked at 200 ppb,Pos
same,% Pos (16 hr Result),[2]; milk spiked at 200 ppb,100%
same,% Pos (Result),[2]; milk spiked at 200 ppb,100%
same,Result,[2]; milk spiked at 200 ppb,Pos
"COc1ncnc(NS(=O)(=O)c2ccc(N)cc2)c1OC [SDN, sulfadoxine]",% Pos (Color 2),[1]; milk spiked at 100 ppb,100%
same,Color 2,[1]; milk spiked at 100 ppb,4
same,% Pos (Color 1),[1]; milk spiked at 100 ppb,100%
same,Color 1,[1]; milk spiked at 100 ppb,5
same,16 hr Result,[2]; milk spiked at 100 ppb,Pos
same,% Pos (16 hr Result),[2]; milk spiked at 100 ppb,100%
same,% Pos (Result),[2]; milk spiked at 100 ppb,100%
same,Result,[2]; milk spiked at 100 ppb,Pos
"CC[C@H]1OC(=O)C[C@@H](O)[C@H](C)[C@@H](O[C@@H]2O[C@H](C)[C@@H](O)[C@H](N(C)C)[C@H]2O)[C@@H](CCN2C[C@H](C)C[C@H](C)C2)C[C@@H](C)C(=O)/C=C/C(C)=C/[C@@H]1CO[C@@H]1O[C@H](C)[C@@H](O)[C@@H](OC)[C@H]1OC [Til, tilmicosin]",% Pos (Color 2),[1]; milk spiked at 80 ppb,100%
same,Color 2,[1]; milk spiked at 80 ppb,5
same,% Pos (Color 1),[1]; milk spiked at 80 ppb,100%
same,Color 1,[1]; milk spiked at 80 ppb,5
same,16 hr Result,[2]; milk spiked at 80 ppb,Pos
same,% Pos (16 hr Result),[2]; milk spiked at 80 ppb,100%
same,% Pos (Result),[2]; milk spiked at 80 ppb,100%
same,Result,[2]; milk spiked at 80 ppb,Pos

# Source: patent publication US8476064B2, “Inhibition assay method and device for detection of antibiotics” (Charm Sciences, Inc., priority 2006, dated 2013)
